# Data from PubChem BioAssay (NCI).
#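 Briefly, cells in 96-well plates were exposed to five compound concentrations for 48 h, and endpoints were estimated by linear interpolation. GI50: concentration for 50% inhibition of growth. The concentration for full growth arrest is given as TGI.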
# What was measured:
# Test in all cases: NCI anticancer screen, dose series, 48 h
# [1] = system: SNB-19 CNS
# [2] = system: SK-OV-3 ovarian
# [3] = system: K-562 leukemia
# [4] = system: SW-620 colon
# [5] = system: MALME-3M melanoma
# [6] = system: SF-539 CNS
# [7] = system: NCI-H226 lung
# [8] = system: CCRF-CEM leukemia
# [9] = system: KM12 colon
# [10] = system: IGROV1 ovarian
# [11] = system: SF-295 CNS
# [12] = system: OVCAR-5 ovarian
# [13] = system: M14 melanoma
# [14] = system: SF-268 CNS
# [15] = system: HOP-92 NSCLC
# [16] = system: RPMI-8226 leukemia
# [17] = system: EKVX NSCLC
# [18] = system: SK-MEL-2 melanoma
# [19] = system: T-47D breast
# [20] = system: LOX IMVI melanoma
# [21] = system: PC-3 prostate
# [22] = system: SNB-75 CNS
# [23] = system: RXF 393 renal
# [24] = system: CAKI-1 renal
# [25] = system: NCI-H23 lung
# [26] = system: COLO 205 colon
# [27] = system: TK-10 renal
# [28] = system: MDA-N
# [29] = system: HCC-2998 colon
# [30] = system: ACHN renal
# [31] = system: OVCAR-8 ovarian
# [32] = system: HL-60(TB) leukemia
# [33] = system: SR leukemia
# [34] = system: SK-MEL-28 melanoma
# [35] = system: OVCAR-3 ovarian
# [36] = system: NCI/ADR-RES ovarian
# [37] = system: SK-MEL-5 melanoma
# [38] = system: HS 578T breast
# [39] = system: OVCAR-4 ovarian
# [40] = system: MDA-MB-435
# [41] = system: MDA-MB-231 breast
# [42] = system: MOLT-4 leukemia
# [43] = system: 786-0 renal
# [44] = system: HOP-62 NSCLC
# [45] = system: HCT-15 colon
# [46] = system: UACC-62 melanoma
# [47] = system: SN12C renal
# [48] = system: U251 CNS
# [49] = system: DU-145 prostate
# [50] = system: MCF7 breast
# [51] = system: UACC-257 melanoma
# [52] = system: NCI-H460 lung
# [53] = system: HT29 colon
# [54] = system: HCT-116 colon
# [55] = system: A549 NSCLC
# [56] = system: UO-31 renal
# [57] = system: NCI-H522 lung
# [58] = system: A498 renal
# [59] = system: BT-549 breast
structure (smiles),measurement,setting,value
CC1(C)C=[N+]([O-])C(C)(C)N1,TGI,[1],> 100 µM
same,TGI,[2],> 100 µM
same,TGI,[3],> 100 µM
same,TGI,[4],> 100 µM
same,TGI,[5],> 100 µM
same,TGI,[6],> 100 µM
same,TGI,[7],> 100 µM
same,TGI,[8],> 100 µM
same,TGI,[9],> 100 µM
same,TGI,[10],> 100 µM
same,TGI,[11],> 100 µM
same,TGI,[12],> 100 µM
same,TGI,[13],> 100 µM
same,TGI,[14],> 100 µM
same,TGI,[15],> 100 µM
same,TGI,[16],> 100 µM
same,TGI,[17],> 100 µM
same,TGI,[18],> 100 µM
same,TGI,[19],> 100 µM
same,TGI,[20],> 100 µM
same,TGI,[21],> 100 µM
same,TGI,[22],> 100 µM
same,TGI,[23],> 100 µM
same,TGI,[24],> 100 µM
same,TGI,[25],> 100 µM
same,TGI,[26],> 100 µM
same,TGI,[27],> 100 µM
same,TGI,[28],> 100 µM
same,TGI,[29],> 100 µM
same,TGI,[30],> 100 µM
same,TGI,[31],> 100 µM
same,TGI,[32],> 100 µM
same,TGI,[33],> 100 µM
same,TGI,[34],> 100 µM
same,TGI,[35],> 100 µM
same,TGI,[36],> 100 µM
same,TGI,[37],> 100 µM
same,TGI,[38],> 100 µM
same,TGI,[39],> 100 µM
same,TGI,[40],> 100 µM
same,TGI,[41],> 100 µM
same,TGI,[42],> 100 µM
same,TGI,[43],> 100 µM
same,TGI,[44],> 100 µM
same,TGI,[45],> 100 µM
same,TGI,[46],> 100 µM
same,TGI,[47],> 100 µM
same,TGI,[48],> 100 µM
same,TGI,[49],> 100 µM
same,TGI,[50],> 100 µM
same,TGI,[51],> 100 µM
same,TGI,[52],> 100 µM
same,TGI,[53],> 100 µM
same,TGI,[54],> 100 µM
same,TGI,[55],> 100 µM
same,TGI,[56],> 100 µM
COc1ccc(CNc2nc(NCc3ccc(OC)cc3)nc(NC(C)C)n2)cc1,TGI,[57],10.6 µM
same,TGI,[1],> 100 µM
same,TGI,[2],> 100 µM
same,TGI,[3],> 100 µM
same,TGI,[4],> 100 µM
same,TGI,[5],22.8 µM
same,TGI,[6],27.3 µM
same,TGI,[9],76.3 µM
same,TGI,[10],> 100 µM
same,TGI,[11],> 100 µM
same,TGI,[12],81.9 µM
same,TGI,[13],16.7 µM
same,TGI,[14],50 µM
same,TGI,[15],48.7 µM
same,TGI,[16],5.3 µM
same,TGI,[17],93.2 µM
same,TGI,[18],44.2 µM
same,TGI,[19],> 100 µM
same,TGI,[20],30.9 µM
same,TGI,[21],23.9 µM
same,TGI,[22],> 100 µM
same,TGI,[23],38.5 µM
same,TGI,[24],66.4 µM
same,TGI,[25],30.8 µM
same,TGI,[26],33.9 µM
same,TGI,[27],70.4 µM
same,TGI,[28],10.3 µM
same,TGI,[29],64.8 µM
same,TGI,[30],59.1 µM
same,TGI,[31],33.6 µM
same,TGI,[32],17.7 µM
same,TGI,[33],> 100 µM
same,TGI,[34],> 100 µM
same,TGI,[35],10.3 µM
same,TGI,[36],18.9 µM
same,TGI,[37],16.5 µM
same,TGI,[38],> 100 µM
same,TGI,[39],> 100 µM
same,TGI,[40],11.2 µM
same,TGI,[42],> 100 µM
same,TGI,[43],32.9 µM
same,TGI,[44],37.5 µM
same,TGI,[45],> 100 µM
same,TGI,[46],31.1 µM
same,TGI,[48],> 100 µM
same,TGI,[49],66 µM
same,TGI,[50],5.6 µM
same,TGI,[51],39.8 µM
same,TGI,[52],17 µM
same,TGI,[53],> 100 µM
same,TGI,[58],47.1 µM
same,TGI,[54],12.4 µM
same,TGI,[55],33.7 µM
same,TGI,[56],> 100 µM
CCn1c(-c2nonc2N)nc2c(C#CC(C)(C)O)nc(O[C@@H](CN)c3ccccc3)cc21,GI50,[57],0.0919 µM
same,TGI,[57],0.353 µM
same,GI50,[1],0.236 µM
same,TGI,[1],3.24 µM
same,GI50,[2],0.073 µM
same,TGI,[2],4.57 µM
same,GI50,[3],0.122 µM
same,TGI,[3],4.26 µM
same,GI50,[4],0.119 µM
same,TGI,[4],3.17 µM
same,GI50,[5],0.447 µM
same,TGI,[5],1.47 µM
same,GI50,[6],0.116 µM
same,TGI,[6],0.874 µM
same,GI50,[7],0.624 µM
same,TGI,[7],1.57 µM
same,GI50,[8],0.0554 µM
same,TGI,[8],5.16 µM
same,GI50,[9],0.0578 µM
same,TGI,[9],1.51 µM
same,GI50,[10],0.0163 µM
same,TGI,[10],2.86 µM
same,GI50,[11],0.0333 µM
same,TGI,[11],1 µM
same,GI50,[12],0.859 µM
same,TGI,[12],15.8 µM
same,GI50,[13],0.407 µM
same,TGI,[13],1.67 µM
same,GI50,[14],0.574 µM
same,TGI,[14],1.98 µM
same,GI50,[59],0.356 µM
same,TGI,[59],1.9 µM
same,GI50,[15],0.0727 µM
same,TGI,[15],1.12 µM
same,GI50,[16],0.645 µM
same,TGI,[16],2.7 µM
same,GI50,[17],0.982 µM
same,TGI,[17],9.38 µM
same,GI50,[18],0.188 µM
same,TGI,[18],0.737 µM
same,GI50,[19],0.016 µM
same,TGI,[19],2.34 µM
same,GI50,[20],0.14 µM
same,TGI,[20],1.32 µM
same,GI50,[21],0.0858 µM
same,TGI,[21],9.94 µM
same,GI50,[22],0.122 µM
same,TGI,[22],4.06 µM
same,GI50,[23],0.0338 µM
same,TGI,[23],0.394 µM
same,GI50,[24],3.7 µM
same,TGI,[24],12.3 µM
same,GI50,[25],0.344 µM
same,TGI,[25],2.97 µM
same,GI50,[26],0.123 µM
same,TGI,[26],0.646 µM
same,GI50,[27],0.164 µM
same,TGI,[27],1.66 µM
same,GI50,[29],0.0478 µM
same,TGI,[29],0.858 µM
same,GI50,[30],0.689 µM
same,TGI,[30],4.73 µM
same,GI50,[31],0.244 µM
same,TGI,[31],2.59 µM
same,GI50,[32],0.0891 µM
same,TGI,[32],0.371 µM
same,GI50,[33],0.099 µM
same,TGI,[33],3.59 µM
same,GI50,[34],0.399 µM
same,TGI,[34],1.19 µM
same,GI50,[35],0.0845 µM
same,TGI,[35],0.314 µM
same,GI50,[36],6.38 µM
same,TGI,[36],25 µM
same,GI50,[37],0.413 µM
same,TGI,[37],0.892 µM
same,GI50,[38],0.0453 µM
same,TGI,[38],1.09 µM
same,GI50,[39],0.447 µM
same,TGI,[39],4.63 µM
same,GI50,[40],0.365 µM
same,TGI,[40],2.99 µM
same,GI50,[41],0.528 µM
same,TGI,[41],2.65 µM
same,GI50,[42],0.11 µM
same,TGI,[42],1.97 µM
same,GI50,[43],0.16 µM
same,TGI,[43],2.49 µM
same,GI50,[44],0.294 µM
same,TGI,[44],1.98 µM
same,GI50,[45],3.1 µM
same,TGI,[45],24.1 µM
same,GI50,[46],0.361 µM
same,TGI,[46],1.02 µM
same,GI50,[47],0.208 µM
same,TGI,[47],2.82 µM
same,GI50,[48],0.0455 µM
same,TGI,[48],1.15 µM
same,GI50,[49],0.112 µM
same,TGI,[49],4.64 µM
same,GI50,[50],0.055 µM
same,TGI,[50],2.58 µM
same,GI50,[51],0.611 µM
same,TGI,[51],1.54 µM
same,GI50,[52],0.0621 µM
same,TGI,[52],1.06 µM
same,GI50,[53],0.119 µM
same,TGI,[53],0.735 µM
same,GI50,[58],0.00553 µM
same,TGI,[58],0.171 µM
same,GI50,[54],0.121 µM
same,TGI,[54],2.61 µM
same,GI50,[55],0.108 µM
same,TGI,[55],3.7 µM
same,GI50,[56],3.52 µM
same,TGI,[56],7.37 µM
